From US10294202B2, “Pyrrolidinones as herbicides” (FMC Corporation, priority 2013, dated 2019)

Key:
johnsongrass = experiment: Test C pre-/postemergence herbicide test; type: in vivo, Sorghum halepense
In short: (§1)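 Two application timings ran in parallel with identically formulated test chemicals (non-phytotoxic solvent, surfactant included): spray on seeded loam–sand soil, and spray on emerged plants 2 to 18 cm high. Evaluation at 13 to 15 days compared each species with controls, rated from 0 up to 100.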

barnyardgrass = experiment: Test A pre-/postemergence herbicide test; type: in vivo, Echinochloa crus-galli
In short: (§2)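 Directed soil spray to seeded pots (preemergence) or spray onto one- to two-leaf seedlings 2–10 cm tall (postemergence); loam/sand substrate throughout. Evaluated visually after about 10 days against untreated plants, 0 = no effect, 100 = complete control.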

corn [1] = experiment: Test A pre-/postemergence herbicide test; type: in vivo, Zea mays; details: Postemergence
In short: as §2

wheat (winter wheat) = experiment: Test C pre-/postemergence herbicide test; type: in vivo, Triticum aestivum
In short: as §1

wheat = experiment: Test A pre-/postemergence herbicide test; type: in vivo, Triticum aestivum; details: Postemergence
In short: as §2

galium = experiment: Test C pre-/postemergence herbicide test; type: in vivo, Galium aparine; details: Preemergence
In short: as §1

foxtail, giant = experiment: Test C pre-/postemergence herbicide test; type: in vivo, Setaria faberii
In short: as §1

pigweed = experiment: Test A pre-/postemergence herbicide test; type: in vivo, Amaranthus retroflexus
In short: as §2

morningglory = experiment: Test C pre-/postemergence herbicide test; type: in vivo, Ipomoea coccinea
In short: as §1

soybean = experiment: Test C pre-/postemergence herbicide test; type: in vivo, Glycine max
In short: as §1

ryegrass, Italian = experiment: Test C pre-/postemergence herbicide test; type: in vivo, Lolium multiflorum
In short: as §1

crabgrass, large = experiment: Test C pre-/postemergence herbicide test; type: in vivo, Digitaria sanguinalis
In short: as §1

corn [2] = experiment: Test C pre-/postemergence herbicide test; type: in vivo, Zea mays
In short: as §1

[3] = Postemergence, 31 g ai/ha, scale 0 to 100 (0 no effect, 100 complete control)
[4] = Postemergence, 62 g ai/ha, scale 0 (no effect) to 100 (complete control)
[5] = Postemergence, 125 g ai/ha, scale 0 to 100 (0 no effect, 100 complete control)
[6] = Postemergence, 250 g ai/ha, scale 0 to 100 (0 no effect, 100 complete control)
[7] = Preemergence, 31 g ai/ha, scale 0 to 100, 0 is no effect and 100 is complete control
[8] = Preemergence, 62 g ai/ha, scale 0 to 100 (0 no effect, 100 complete control)
[9] = Preemergence, 125 g ai/ha, scale 0 to 100
[10] = Postemergence, 125 g ai/ha, visual rating on 0 to 100 scale (0 no effect, 100 complete control), approx. 10 days
[11] = Postemergence, 500 g ai/ha, 0 to 100 scale (0 no effect, 100 complete control)
[12] = Preemergence, 125 g ai/ha, 0 to 100 scale where 0 is no effect and 100 is complete control
[13] = Preemergence, 500 g ai/ha, visual rating on 0 to 100 scale (0 no effect, 100 complete control)
[14] = 125 g ai/ha, visual rating on 0 to 100 scale (0 no effect, 100 complete control), approx. 10 days
[15] = 500 g ai/ha, 0 to 100 scale (0 no effect, 100 complete control)

Structure (SMILES): O=C1NCC(c2cccc(OC(F)F)c2)C1C(=O)Nc1ccc(F)c(F)c1F (centres unmarked) [Compound 325]
- Plant response rating, Johnsongrass (johnsongrass; [3]): 0
- Plant response rating, Johnsongrass (johnsongrass; [4]): 0
- Plant response rating, Johnsongrass (johnsongrass; [5]): 0
- Plant response rating, Johnsongrass (johnsongrass; [6]): 0
- Johnsongrass plant response rating (johnsongrass; [7]): 20
- Johnsongrass plant response rating (johnsongrass; [8]): 35
- Plant response rating, Johnsongrass (johnsongrass; [9]): 75
- Plant response rating (scale of 0 to 100), Johnsongrass (johnsongrass; Preemergence, 250 g ai/ha): 75
- Plant response rating, Barnyardgrass (barnyardgrass; [10]): 90
- Plant response rating, Barnyardgrass (barnyardgrass; [11]): 90
- Plant response rating, Barnyardgrass (barnyardgrass; [12]): 90
- Barnyardgrass plant response rating (barnyardgrass; [13]): 90
- Plant response rating, Corn (corn [1]; [14]): 80
- Plant response rating, Corn (corn [1]; [15]): 80
- Plant response rating, Wheat (wheat (winter wheat); [3]): 0
- Plant response rating, Wheat (wheat (winter wheat); [4]): 0
- Plant response rating, Wheat (wheat (winter wheat); [5]): 0
- Plant response rating, Wheat (wheat (winter wheat); [6]): 5
- Wheat plant response rating (wheat (winter wheat); [8]): 40
- Plant response rating, Wheat (wheat (winter wheat); [9]): 65
- Plant response rating, Wheat (wheat; [14]): 60
- Plant response rating, Wheat (wheat; [15]): 80
- Galium plant response rating (galium; 31 g ai/ha, scale 0 to 100, 0 is no effect and 100 is complete control): 0
- Galium plant response rating (galium; 62 g ai/ha, scale 0 to 100 (0 no effect, 100 complete control)): 20
- Plant response rating, Galium (galium; 125 g ai/ha, scale 0 to 100): 50
- Plant response rating (scale of 0 to 100), Galium (galium; 250 g ai/ha): 80
- Plant response rating, Foxtail, Giant (foxtail, giant; [3]): 0
- Plant response rating, Foxtail, Giant (foxtail, giant; [4]): 35
- Plant response rating, Foxtail, Giant (foxtail, giant; [5]): 65
- Plant response rating, Foxtail, Giant (foxtail, giant; [6]): 75
- Foxtail, Giant plant response rating (foxtail, giant; [7]): 90
- Foxtail, Giant plant response rating (foxtail, giant; [8]): 95
- Plant response rating, Foxtail, Giant (foxtail, giant; [9]): 98
- Plant response rating (scale of 0 to 100), Foxtail, Giant (foxtail, giant; Preemergence, 250 g ai/ha): 95
- Plant response rating, Pigweed (pigweed; [10]): 40
- Plant response rating, Pigweed (pigweed; [11]): 50
- Plant response rating, Pigweed (pigweed; [12]): 30
- Pigweed plant response rating (pigweed; [13]): 60
- Plant response rating, Morningglory (morningglory; [3]): 5
- Plant response rating, Morningglory (morningglory; [4]): 5
- Plant response rating, Morningglory (morningglory; [5]): 35
- Plant response rating, Morningglory (morningglory; [6]): 50
- Morningglory plant response rating (morningglory; [7]): 0
- Morningglory plant response rating (morningglory; [8]): 30
- Plant response rating, Morningglory (morningglory; [9]): 30
- Plant response rating (scale of 0 to 100), Morningglory (morningglory; Preemergence, 250 g ai/ha): 40
- Plant response rating, Soybean (soybean; [3]): 0
- Plant response rating, Soybean (soybean; [4]): 0
- Plant response rating, Soybean (soybean; [5]): 0
- Plant response rating, Soybean (soybean; [6]): 0
- Soybean plant response rating (soybean; [8]): 0
- Plant response rating, Soybean (soybean; [9]): 0
- Plant response rating, Ryegrass, Italian (ryegrass, Italian; [3]): 0
- Plant response rating, Ryegrass, Italian (ryegrass, Italian; [4]): 0
- Plant response rating, Ryegrass, Italian (ryegrass, Italian; [5]): 0
- Plant response rating, Ryegrass, Italian (ryegrass, Italian; [6]): 30
- Ryegrass, Italian plant response rating (ryegrass, Italian; [8]): 40
- Plant response rating, Ryegrass, Italian (ryegrass, Italian; [9]): 50
- Plant response rating, Crabgrass, Large (crabgrass, large; [3]): 55
- Plant response rating, Crabgrass, Large (crabgrass, large; [4]): 65
- Plant response rating, Crabgrass, Large (crabgrass, large; [5]): 65
- Plant response rating, Crabgrass, Large (crabgrass, large; [6]): 85
- Crabgrass, Large plant response rating (crabgrass, large; [7]): 95
- Crabgrass, Large plant response rating (crabgrass, large; [8]): 95
- Plant response rating, Crabgrass, Large (crabgrass, large; [9]): 95
- Plant response rating (scale of 0 to 100), Crabgrass, Large (crabgrass, large; Preemergence, 250 g ai/ha): 100
- Plant response rating, Corn (corn [2]; [3]): 0
- Plant response rating, Corn (corn [2]; [4]): 0
- Plant response rating, Corn (corn [2]; [5]): 10
- Plant response rating, Corn (corn [2]; [6]): 35
- Corn plant response rating (corn [2]; [7]): 10
- Corn plant response rating (corn [2]; [8]): 60
- Plant response rating, Corn (corn [2]; [9]): 70
- Plant response rating (scale of 0 to 100), Corn (corn [2]; Preemergence, 250 g ai/ha): 85
